One compound from BindingDB's records for doi:10.1021/jm050113z (University of North Carolina at Chapel Hill, 2005) can be followed below.

This test deals with T1, Protein RecA (Escherichia coli (strain K12), UniProt P0A7G6).
T1 sequence (P0A7G6 whole entry): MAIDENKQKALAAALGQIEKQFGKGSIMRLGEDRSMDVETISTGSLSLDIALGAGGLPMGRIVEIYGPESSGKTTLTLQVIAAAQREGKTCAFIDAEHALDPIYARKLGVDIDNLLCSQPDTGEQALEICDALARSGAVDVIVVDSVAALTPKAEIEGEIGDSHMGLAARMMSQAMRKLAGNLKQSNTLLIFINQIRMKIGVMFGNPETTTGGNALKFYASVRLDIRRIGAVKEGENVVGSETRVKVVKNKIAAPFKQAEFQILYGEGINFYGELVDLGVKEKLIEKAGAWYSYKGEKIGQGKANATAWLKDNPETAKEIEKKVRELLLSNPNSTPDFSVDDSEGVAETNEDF
Nature of the test: In vitro apparent inhibition constant against Escherichia coli RecA protein.

For the compound `O=P(O)(O)OP(=O)(O)OC[C@H]1O[C@@H](n2cnc3c(Nc4cccc5ccccc45)ncnc32)[C@H](O)[C@@H]1O`, the Ki stood at 46 µM.
